In patent publication US20060100245A1, “Substituted biphenyl-4-carboxylic acid arylamide analogues” (Neurogen Corporation, priority 2002, published 2006):

Target: T1, human capsaicin receptor (VR1) (Homo sapiens, UniProt Q8NER1)
T1 construct: transfected with the pBK-CMV expression construct encoding the full length human capsaicin receptor; expressed in transfected cells
Assay: Capsaicin receptor binding assay ([3H]RTX competition)
Details: read-out: Ki
Description: This Example illustrates the preparation of VR1-transfected cells and membrane preparations for use in binding assays (Example 5) and functional assays (Example 6).
A cDNA encoding full length human capsaicin receptor (SEQ ID NO: 1, 2 or 3 of U.S. Pat. No. 6,482,611) was subcloned in the plasmid pBK-CMV (Stratagene, La Jolla, Calif.) for recombinant expression in mammalian cells.
Human embryonic kidney (HEK293) cells were transfected with the pBK-CMV expression construct encoding the full length human capsaicin receptor using standard methods. The transfected cells were selected for two weeks in media containing G418 ([…]) to obtain a pool of stably transfected cells. Independent clones were isolated from this pool by limiting dilution to obtain clonal stable cell lines for use in subsequent experiments.
For radioligand binding experiments, cells were seeded in T175 cell culture flasks in media without antibiotics and grown to approximately 90% confluency. The flasks were then washed with PBS and harvested in PBS containing 5 mM EDTA. The cells were pelleted by gentle centrifugation and stored at −80° C. until assayed.
Previously frozen cells were disrupted with the aid of a tissue homogenizer in ice-cold HEPES homogenization buffer (5mM KCl 5, 5.8 mM NaCl, 0.75 mM CaCl2, 2 mM MgCl2, 320 mM sucrose, and 10 mM HEPES pH 7.4). Tissue homogenates were first centrifuged for 10 minutes at 1000×g (4° C.) to remove the nuclear fraction and debris, and then the supernatant from the first centrifugation is further centrifuged for 30 minutes at 35,000×g (4° C.) to obtain a partially purified membrane fraction. Membranes were resuspended in the HEPES homogenization buffer prior to the assay. An aliquot of this membrane homogenate is used to determine protein concentration via the Bradford method (BIO-RAD Protein Assay Kit, #500-0001, BIO-RAD, Hercules, Calif.).
This Example illustrates a representative assay of capsaicin receptor binding that may be used to determine the binding affinity of compounds for the capsaicin (VR1) receptor.
Binding studies with [^3H] Resiniferatoxin (RTX) are carried out essentially as described by Szallasi and Blumberg (1992) J. Pharmacol. Exp. Ter. 262: 883-888. In this protocol, non-specific RTX binding is reduced by adding bovine alpha, acid glycoprotein (100 μg per tube) after the binding reaction has been terminated.
[^3H] RTX (37 Ci/mmol) is synthesized by and obtained from the Chemical Synthesis and Analysis Laboratory, National Cancer Institute-Frederick Cancer Research and Development Center, Frederick, Md. [^3H] RTX may also be obtained from commercial vendors (e.g., Amersham Pharmacia Biotech, Inc.; Piscataway, N.J.).
The membrane homogenate of Example 4 is centrifuged as before and resuspended to a protein concentration of 333 μg/ml in homogenization buffer. Binding assay mixtures are set up on ice and contain [^3H]JRTX (specific activity 2200 mCi/ml), 2 μl non-radioactive test compound, 0.25 mg/ml bovine serum albumin (Cohn fraction V), and 5×10^4−1×10^5 VR1-transfected cells. The final volume is adjusted to 500 μl (for competition binding assays) or 1,000 μl (for saturation binding assays) with the ice-cold HEPES homogenization buffer solution (pH 7.4) described above. Non-specific binding is defined as that occurring in the presence of 1 μM non-radioactive RTX (Alexis Corp.; San Diego, Calif.). For saturation binding, [^3H]RTX is added in the concentration range of […], using 1 to 2 dilutions. Typically 11 concentration points are collected per saturation binding curve.
Competition binding assays are performed in the presence of 60 pM [^3H]RTX and various concentrations of test compound. The binding reactions are initiated by transferring the assay mixtures into a 37° C. water bath and are terminated following a 60 minute incubation period by cooling the tubes on ice.

T1 sequence (Q8NER1 whole entry): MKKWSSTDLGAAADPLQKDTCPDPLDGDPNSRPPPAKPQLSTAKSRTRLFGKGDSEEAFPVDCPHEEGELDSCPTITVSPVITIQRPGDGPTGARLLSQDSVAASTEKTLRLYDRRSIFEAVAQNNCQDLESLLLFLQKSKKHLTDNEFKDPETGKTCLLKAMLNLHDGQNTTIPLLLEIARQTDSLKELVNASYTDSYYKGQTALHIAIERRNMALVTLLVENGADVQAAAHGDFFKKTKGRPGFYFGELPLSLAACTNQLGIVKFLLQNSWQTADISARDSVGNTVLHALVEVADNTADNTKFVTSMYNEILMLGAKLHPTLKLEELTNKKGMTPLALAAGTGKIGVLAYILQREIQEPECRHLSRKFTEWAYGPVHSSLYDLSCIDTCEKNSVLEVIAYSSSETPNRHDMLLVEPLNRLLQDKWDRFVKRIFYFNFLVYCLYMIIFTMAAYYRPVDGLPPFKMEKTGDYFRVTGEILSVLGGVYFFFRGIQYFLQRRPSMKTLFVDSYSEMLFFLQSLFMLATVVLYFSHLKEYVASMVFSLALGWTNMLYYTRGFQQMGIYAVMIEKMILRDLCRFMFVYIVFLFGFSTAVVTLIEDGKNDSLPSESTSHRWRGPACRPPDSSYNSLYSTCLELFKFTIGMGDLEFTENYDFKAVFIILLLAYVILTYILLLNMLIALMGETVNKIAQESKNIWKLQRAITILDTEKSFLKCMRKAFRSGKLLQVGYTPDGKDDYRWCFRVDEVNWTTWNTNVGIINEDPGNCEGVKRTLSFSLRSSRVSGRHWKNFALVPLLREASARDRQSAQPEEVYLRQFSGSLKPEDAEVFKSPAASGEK

Compound | Ki
COc1cccc(NC(=O)c2ccc(-c3cccc(F)c3)nc2)c1 [Compound 126, 6-(3-Fluoro-phenyl)-N-(3-methoxy-phenyl)-nicotinamide] | < 1000 nM
CC(C)c1ccc(NC(=O)c2ccc(-c3cccc(F)c3)nc2)cc1 [Compound 127, 6-(3-Fluoro-phenyl)-N-(4-isopropyl-phenyl)-nicotinamide] | < 1000 nM
O=C(Nc1ccc2c(c1)CCC2)c1ccc(-c2cccc(F)c2)nc1 [Compound 129, 6-(3-Fluoro-phenyl)-N-indan-5-yl-nicotinamide] | < 1000 nM
Cc1nc2cc(NC(=O)c3ccc(-c4cccc(C(C)C)c4)nc3)ccc2s1 [Compound 130, 6-(3-Isopropyl-phenyl)-N-(2-methyl-benzothiazol-5-yl)-nicotinamide] | < 1000 nM
COc1cccc(NC(=O)c2ccc(-c3cccc(C(C)C)c3)nc2)c1 [Compound 131, 6-(3-Isopropyl-phenyl)-N-(3-methoxy-phenyl)-nicotinamide] | < 1000 nM
O=C(Nc1ccc(C(F)(F)F)cc1)c1ccc(-c2cccc(OC(F)(F)F)c2)nc1 [Compound 135, N-(4-Trifluoromethyl-phenyl)-6-(3-Trifluoromethoxy-phenyl)-nicotinamide] | < 1000 nM
CCCCc1ccc(-c2ccc(C(=O)Nc3cccc(OC)c3)cn2)cc1 [Compound 137, 6-(4-Butyl-phenyl)-N-(3-methoxy-phenyl)-nicotinamide] | < 1000 nM
COc1cccc(NC(=O)c2ccc(-c3ccc(C(C)C)cc3)nc2)c1 [Compound 147, 6-(4-Isopropyl-phenyl)-N-(3-methoxy-phenyl)-nicotinamide] | < 1000 nM
CCCc1ccc(NC(=O)c2ccc(-c3cc(Cl)ccc3OC)nc2)cc1 [Compound 157, 6-(5-Chloro-2-methoxy-phenyl)-N-(4-propyl-phenyl)-nicotinamide] | < 1000 nM
Cc1nc(-c2ncccc2C(F)(F)F)ccc1C(=O)Nc1ccc(C(F)(F)F)cc1 [Compound 181, 6-Methyl-3′-trifluoromethyl-[2,2′]bipyridinyl-5-carboxylic acid (4-trifluoromethyl-phenyl)-amide] | < 1000 nM
Cc1ccccc1-c1ccc(C(=O)Nc2ccc(C(F)(F)F)cc2)cn1 [Compound 185, 6-o-Tolyl-N-(4-trifluoromethyl-phenyl)-nicotinamide] | < 1000 nM
COc1cc(NC(=O)c2ccc(-c3ccccc3)cc2)ccc1Cl [Compound 189, Biphenyl-4-carboxylic acid (4-chloro-3-methoxy-phenyl)-amide] | < 1000 nM
O=C(Nc1ccc2c(c1)OCCO2)c1ccc(-c2ccccc2F)nc1 [Compound 192, N-(2,3-Dihydro-benzo[1,4]dioxin-6-yl)-6-(2-fluoro-phenyl)-nicotinamide] | < 1000 nM
CCOc1cccc(-c2ccc(C(=O)Nc3ccc4c(c3)OCCO4)cn2)c1 [Compound 194, N-(2,3-Dihydro-benzo[1,4]dioxin-6-yl)-6-(3-ethoxy-phenyl)-nicotinamide] | < 1000 nM
CC(C)c1cccc(-c2ccc(C(=O)Nc3ccc4c(c3)OCCO4)cn2)c1 [Compound 196, N-(2,3-Dihydro-benzo[1,4]dioxin-6-yl)-6-(3-isopropyl-phenyl)-nicotinamide] | < 1000 nM
Cc1cccc(-c2ccc(C(=O)Nc3ccc4c(c3)OCCO4)cn2)c1 [Compound 202, N-(2,3-Dihydro-benzo[1,4]dioxin-6-yl)-6-m-tolyl-nicotinamide] | < 1000 nM
Cc1nc2cc(NC(=O)c3ccc(-c4cccc(OC(F)(F)F)c4)nc3)ccc2s1 [Compound 207, N-(2-Methyl-benzothiazol-5-yl)-6-(3-trifluoromethoxy-phenyl)-nicotinamide] | < 1000 nM
Cc1cccc(-c2ccc(C(=O)Nc3ccc4sc(C)nc4c3)cn2)c1 [Compound 208, N-(2-Methyl-benzothiazol-5-yl)-6-m-tolyl-nicotinamide] | < 1000 nM

Compound | Ki
Cc1nc2cc(NC(=O)c3ccc(-c4ccccc4)nc3)ccc2s1 [Compound 209, N-(2-Methyl-benzothiazol-5-yl)-6-phenyl-nicotinamide] | < 1000 nM
O=C(Nc1ccc(F)c(F)c1)c1ccc(-c2ncccc2F)cc1 [Compound 214, N-(3,4-Difluoro-phenyl)-4-(3-fluoro-pyridin-2-yl)-benzamide] | < 1000 nM
O=C(Nc1ccc2c(c1)OCCCO2)c1ccc(-c2ccccc2F)nc1 [Compound 218, N-(3,4-Dihydro-2H-benzo[b][1,4]dioxepin-7-yl)-6-(2-fluoro-phenyl)-nicotinamide] | < 1000 nM
O=C(Nc1ccc2c(c1)OCCCO2)c1ccc(-c2cccc(F)c2)nc1 [Compound 220, N-(3,4-Dihydro-2H-benzo[b][1,4]dioxepin-7-yl)-6-(3-fluoro-phenyl)-nicotinamide] | < 1000 nM
CC(C)c1cccc(-c2ccc(C(=O)Nc3ccc4c(c3)OCCCO4)cn2)c1 [Compound 221, N-(3,4-Dihydro-2H-benzo[b][1,4]dioxepin-7-yl)-6-(3-isopropyl-phenyl)-nicotinamide] | < 1000 nM
O=C(Nc1ccc2c(c1)OCCCO2)c1ccc(-c2cccc(OC(F)(F)F)c2)nc1 [Compound 223, N-(3,4-Dihydro-2H-benzo[b][1,4]dioxepin-7-yl)-6-(3-trifluoromethoxy-phenyl)-nicotinamide] | < 1000 nM
O=C(Nc1ccc2c(c1)OCCCO2)c1ccc(-c2ccccc2)nc1 [Compound 230, N-(3,4-Dihydro-2H-benzo[b][1,4]dioxepin-7-yl)-6-phenyl-nicotinamide] | < 1000 nM
COc1ccc(NC(=O)c2ccc(-c3ccccc3F)nc2)cc1OC [Compound 232, N-(3,4-Dimethoxy-phenyl)-6-(2-fluoro-phenyl)-nicotinamide] | < 1000 nM
Cc1cc(C)cc(-c2ccc(C(=O)Nc3ccc(C)c(C)c3)cn2)c1 [Compound 237, N-(3,4-Dimethyl-phenyl)-6-(3,5-dimethyl-phenyl)-nicotinamide] | < 1000 nM
CCOc1cccc(-c2ccc(C(=O)Nc3ccc(C)c(C)c3)cn2)c1 [Compound 238, N-(3,4-Dimethyl-phenyl)-6-(3-ethoxyl-phenyl)-nicotinamide] | < 1000 nM
Cc1ccc(NC(=O)c2ccc(-c3cccc(F)c3)nc2)cc1C [Compound 239, N-(3,4-Dimethyl-phenyl)-6-(3-fluoro-phenyl)-nicotinamide] | < 1000 nM
COc1cccc(-c2ccc(C(=O)Nc3ccc(C)c(C)c3)cn2)c1 [Compound 241, N-(3,4-Dimethyl-phenyl)-6-(3-methoxy-phenyl)-nicotinamide] | < 1000 nM
Cc1ccc(NC(=O)c2ccc(-c3cccc(OC(F)(F)F)c3)nc2)cc1C [Compound 242, N-(3,4-Dimethyl-phenyl)-6-(3-trifluoromethoxy-phenyl)-nicotinamide] | < 1000 nM
Cc1cccc(-c2ccc(C(=O)Nc3ccc(C)c(C)c3)cn2)c1 [Compound 247, N-(3,4-Dimethyl-phenyl)-6-m-tolyl-nicotinamide] | < 1000 nM
Cc1ccc(NC(=O)c2ccc(-c3ccccc3C)nc2)cc1C [Compound 248, N-(3,4-Dimethyl-phenyl)-6-o-tolyl-nicotinamide] | < 1000 nM
Cc1ccc(NC(=O)c2ccc(-c3ccccc3)nc2)cc1C [Compound 249, N-(3,4-Dimethyl-phenyl)-6-phenyl-nicotinamide] | < 1000 nM
Cc1ccc(NC(=O)c2ccc(-c3cccc(F)c3)nc2)cc1F [Compound 266, N-(3-Fluoro-4-methyl-phenyl)-6-(3-fluoro-phenyl)-nicotinamide] | < 1000 nM
Cc1ccc(NC(=O)c2ccc(-c3cccc(C(C)C)c3)nc2)cc1F [Compound 267, N-(3-Fluoro-4-methyl-phenyl)-6-(3-isopropyl-phenyl)-nicotinamide] | < 1000 nM
